Test [1] has as its system Bsu preQ1 riboswitch (wild-type, smFRET construct) (RNA, riboswitch, 5-aminoallyl-uridine at 13) AGAGGUUCUAGCUACACCCUCUAUAAAAAACUAAGG
As to the kind of experiment: smFRET, fraction of high-FRET state. The conditions noted are these: 100 mM KCl, 1 mM MgCl2; 50 mM Tris-HCl pH 7.5, room temperature; apparent; high-FRET saturates near 50%.

In test [2] the test system is T. tengcongensis preQ1-I riboswitch 33-mer (RNA, riboswitch) CUGGGUCGCAGUAACCCCAGUUAACAAAACAAG
Nature of the test: ITC. The conditions noted are these: 100 mM NaCl, 6 mM MgCl2; 50 mM HEPES-NaOH pH 7.0, 25 °C; Table S3 prints 7.4 ± 2.3.

Test [3] relates to Bsu A27C mutant (RNA, riboswitch, 5-aminoallyl-uridine at 13) AGAGGUUCUAGCUACACCCUCUAUAACAAACUAAGG
Nature of the test: smFRET, fraction of high-FRET state. Particulars: 100 mM KCl, 1 mM MgCl2; 50 mM Tris-HCl pH 7.5, room temperature; apparent.

The subject of test [4] is Tte preQ1 riboswitch (wild-type, smFRET construct) (RNA, riboswitch, 5-aminoallyl-uridine at 12) CUGGGUCGCAGUAACCCCAGUUAACAAAACAAGGG
Nature of the test: smFRET, fraction of high-FRET state. The conditions noted are these: 100 mM KCl, 1 mM MgCl2; 50 mM Tris-HCl pH 7.5, room temperature; apparent; high-FRET saturates near 50%.

In the case of `NCc1c[nH]c2nc(N)[nH]c(=O)c12`, the K1/2 in test [1] was determined as 134 ± 45 nM; in test [3], 11 µM; in test [4], 69 ± 22 nM. Besides, the KD (in general, the constant that tells how readily two partners part at equilibrium) in test [2] came out at 7.3 ± 2.3 nM.

(Values after PMC3905878 (2013).)
